Assays:
[1] = target: T1, Cysteinyl leukotriene receptor (Homo sapiens, UniProt Q9Y271+Q9NS75); test: Inhibition of LTC4 induced smooth muscle contraction of guinea pig ileum; format: functional, tissue-based, Cavia porcellus; conditions: target entry is the homologue from another species
T1 sequence (Q9Y271 whole entry): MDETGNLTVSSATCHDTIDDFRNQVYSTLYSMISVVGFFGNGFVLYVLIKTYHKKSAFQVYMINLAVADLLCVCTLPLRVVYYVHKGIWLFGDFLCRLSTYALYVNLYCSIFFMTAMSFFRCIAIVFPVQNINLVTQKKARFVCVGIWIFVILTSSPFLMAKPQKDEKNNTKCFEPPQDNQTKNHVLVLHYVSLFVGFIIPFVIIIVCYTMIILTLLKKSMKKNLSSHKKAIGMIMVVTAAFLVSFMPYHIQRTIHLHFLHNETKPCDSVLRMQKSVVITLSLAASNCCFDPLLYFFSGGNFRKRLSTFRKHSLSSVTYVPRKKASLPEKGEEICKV
T1 sequence (Q9NS75 whole entry): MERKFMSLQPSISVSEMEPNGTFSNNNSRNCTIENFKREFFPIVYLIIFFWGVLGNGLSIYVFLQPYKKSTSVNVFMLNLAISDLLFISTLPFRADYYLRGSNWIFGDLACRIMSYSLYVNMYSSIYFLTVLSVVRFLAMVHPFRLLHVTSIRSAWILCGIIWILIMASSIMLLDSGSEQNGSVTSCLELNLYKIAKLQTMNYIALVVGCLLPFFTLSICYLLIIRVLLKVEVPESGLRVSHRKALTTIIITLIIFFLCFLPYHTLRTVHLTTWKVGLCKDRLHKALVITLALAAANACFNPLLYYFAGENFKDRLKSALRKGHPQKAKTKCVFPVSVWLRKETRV

[2] = target: Cysteinyl leukotriene receptor (Homo sapiens) (UniProt Q9Y271+Q9NS75); test: In vivo inhibition of LTD4-induced bronchoconstriction in anesthetized guinea pig.; format: functional, organism-based; conditions: Cavia porcellus; target entry is the homologue from another species
Cavia porcellus [3] = test: Inhibition of LTD4 (5 ng/site) induced vascular permeability in guinea pig skin at dose 0.3 mg/kg given perorally; format: functional; conditions: route oral
Cavia porcellus [4] = test: Inhibition of LTD4 (5 ng/site) induced vascular permeability in guinea pig skin at dose 10 mg/kg given perorally; format: functional; conditions: route oral

| IC50 [1] [nM] | Structure (SMILES) | also measured |
| --- | --- | --- |
| 62 | O=C(Nc1cccc2c1OC(c1nnn[nH]1)CO2)c1ccc(OCCc2ccccc2)cc1 (stereo unspecified) |  |
| 100 | CCCCCCCc1ccc(/C=C/C(=O)Nc2cccc3c(=O)cc(-c4nn[nH]n4)oc23)cc1 |  |
| 3200 | CCCCCCCCCc1ccc(/C=C/C(=O)Nc2cccc3c2OC(c2nnn[nH]2)CO3)cc1 (stereo unspecified) |  |
| 3000 | CCCCCc1ccc(/C=C/C(=O)Nc2ccccc2OCc2nn[nH]n2)cc1 | ID50 [2]: 0.5 mg/kg |
| 5.5 | CCCCCCCCOc1ccc(C(=O)Nc2cccc3c(=O)cc(-c4nn[nH]n4)oc23)cc1 |  |
| 2200 | CCCOc1ccc(C(=O)Nc2cccc3c2OC(c2nnn[nH]2)CO3)cc1 (stereo unspecified) |  |
| 15 | CCCCCCc1ccc(C(=O)Nc2cccc3c(=O)cc(-c4nn[nH]n4)oc23)cc1 |  |
| 0.16 | C=CCCC/C=C/COc1ccc(C(=O)Nc2cccc3c(=O)cc(-c4nn[nH]n4)oc23)cc1 | inhibition in vivo at 0.3 mg/kg (Cavia porcellus [3]): < 44.6%; ID50 [2]: 0.0012 mg/kg |
| 18 | CCCCCCOc1ccc(/C=C/C(=O)Nc2cccc3c(=O)cc(-c4nn[nH]n4)oc23)cc1 |  |
| 1100 | CCCCCCCCCCc1ccc(/C=C/C(=O)Nc2cccc3c2OC(c2nnn[nH]2)CO3)cc1 (stereo unspecified) |  |
| 4.3 | CCC/C=C/COc1ccc(C(=O)Nc2cccc3c2OC(c2nnn[nH]2)CO3)cc1 (stereo unspecified) | ID50 [2]: 0.0135 mg/kg |
| 830 | CCCCCc1ccc(/C=C/C(=O)Nc2cccc3c2OC(C(=O)O)CO3)cc1 (stereo unspecified) | ID50 [2]: 0.22 mg/kg |
| 0.67 | CCCCCC#CCOc1ccc(C(=O)Nc2cccc3c2OC(c2nnn[nH]2)CO3)cc1 (stereo unspecified) | ID50 [2]: 0.0064 mg/kg |
| 20 | O=C(Nc1cccc2c1OC(c1nnn[nH]1)CO2)c1ccc(OCCCc2ccccc2)cc1 (stereo unspecified) |  |
| 9 | CCCCCCCOc1ccc(C(=O)Nc2cccc3c2OC(c2nnn[nH]2)CO3)cc1 (stereo unspecified) | inhibition in vivo at 10 mg/kg (Cavia porcellus [4]): < 46.7% |
| 120 | CCCCCOc1ccc(/C=C/C(=O)Nc2cccc3c2OC(c2nnn[nH]2)CO3)cc1 (stereo unspecified) |  |
| 30 | CCCCCc1ccc(/C=C/C(=O)Nc2cccc3c(=O)cc(-c4nn[nH]n4)oc23)cc1 | ID50 [2]: 0.014 mg/kg |
| 9400 | CCCCCOc1ccccc1C(=O)Nc1cccc2c1OC(c1nnn[nH]1)CO2 (stereo unspecified) |  |
| 13 | CCCCCCOc1ccc(C(=O)Nc2cccc3c2OC(c2nnn[nH]2)CO3)cc1 (stereo unspecified) |  |
| 100 | CCCCCCCCc1ccc(C(=O)Nc2cccc3c2OC(c2nnn[nH]2)CO3)cc1 (stereo unspecified) |  |
| 70 | CCCCCCCc1ccc(C(=O)Nc2cccc3c2OC(c2nnn[nH]2)CO3)cc1 (stereo unspecified) |  |
| 9000 | CCCCCc1ccc(/C=C/C(=O)Nc2ccccc2OCC(=O)O)cc1 | ID50 [2]: 4.2 mg/kg |
| 0.14 | CCCCCC#CCOc1ccc(C(=O)Nc2cccc3c(=O)cc(-c4nn[nH]n4)oc23)cc1 | ID50 [2]: 0.0011 mg/kg |
| 40000 | CCCCCc1ccccc1C(=O)Nc1cccc2c1OC(c1nnn[nH]1)CO2 (stereo unspecified) |  |
| 34 | CCCCc1ccc(/C=C/C(=O)Nc2cccc3c(=O)cc(-c4nn[nH]n4)oc23)cc1 |  |
| 140 | CCCCCCCOc1ccc(/C=C/C(=O)Nc2cccc3c(=O)cc(-c4nn[nH]n4)oc23)cc1 |  |

| IC50 [1] [nM] | Structure (SMILES) | also measured |
| --- | --- | --- |
| 160 | CCCCCCCCCc1ccc(C(=O)Nc2cccc3c2OC(c2nnn[nH]2)CO3)cc1 (stereo unspecified) |  |
| 7.4 | CCCCCCCCCOc1ccc(C(=O)Nc2cccc3c(=O)cc(-c4nn[nH]n4)oc23)cc1 |  |
| 11 | O=C(Nc1cccc2c1OC(c1nnn[nH]1)CO2)c1ccc(OCCCCCc2ccccc2)cc1 (stereo unspecified) |  |
| 5.5 | CCCCCCCCc1ccc(C(=O)Nc2cccc3c(=O)cc(-c4nn[nH]n4)oc23)cc1 |  |
| 5 | CCCCOc1ccc(C(=O)Nc2cccc3c(=O)cc(-c4nn[nH]n4)oc23)cc1 |  |
| 1500 | CCCCc1ccc(C(=O)Nc2cccc3c2OC(c2nnn[nH]2)CO3)cc1 (stereo unspecified) |  |
| 2600 | CCCCCc1ccc(C(=O)Nc2cccc3c2OC(c2nnn[nH]2)CO3)cc1 (stereo unspecified) |  |
| 150 | CCCCCOc1cccc(/C=C/C(=O)Nc2cccc3c2OC(c2nnn[nH]2)CO3)c1 (stereo unspecified) |  |
| 6900 | CCCCCc1ccc(/C=C/C(=O)Nc2cccc3c2OC(c2nnn[nH]2)C3)cc1 (stereo unspecified) |  |
| 0.96 | O=C(Nc1cccc2c(=O)cc(-c3nn[nH]n3)oc12)c1ccc(OCCCc2ccccc2)cc1 |  |
| 150 | CC/C=C/COc1ccc(C(=O)Nc2cccc3c2OC(c2nnn[nH]2)CO3)cc1 (stereo unspecified) |  |
| 5000 | CCCCCOc1cccc(C(=O)Nc2cccc3c2OC(c2nnn[nH]2)CO3)c1 (stereo unspecified) |  |
| 2150 | CCCCCc1ccccc1/C=C/C(=O)Nc1cccc2c1OC(c1nnn[nH]1)CO2 (stereo unspecified) |  |
| 14 | CCCCCCCCOc1ccc(C(=O)Nc2cccc3c2OC(c2nnn[nH]2)CO3)cc1 (stereo unspecified) |  |
| 0.86 | CCCCCCOc1ccc(C(=O)Nc2cccc3c(=O)cc(-c4nn[nH]n4)oc23)cc1 |  |
| 7 | CCCCCCCCCc1ccc(C(=O)Nc2cccc3c(=O)cc(-c4nn[nH]n4)oc23)cc1 |  |
| 0.47 | CCCC/C=C/COc1ccc(C(=O)Nc2cccc3c2OC(c2nnn[nH]2)CO3)cc1 (stereo unspecified) | ID50 [2]: 0.0055 mg/kg |
| 490 | CCCc1ccc(/C=C/C(=O)Nc2cccc3c2OC(c2nnn[nH]2)CO3)cc1 (stereo unspecified) |  |
| 21 | CCCCCCOc1ccc(/C=C/C(=O)Nc2cccc3c2OC(c2nnn[nH]2)CO3)cc1 (stereo unspecified) |  |
| 580 | CCCCCCCCc1ccc(/C=C/C(=O)Nc2cccc3c2OC(c2nnn[nH]2)CO3)cc1 (stereo unspecified) |  |
| 180 | CCCCCc1ccc(C(=O)Nc2cccc3c(=O)cc(-c4nn[nH]n4)oc23)cc1 |  |
| 0.031 | CCCC/C=C/COc1ccc(C(=O)Nc2cccc3c(=O)cc(-c4nn[nH]n4)oc23)cc1 | ID50 [2]: 0.0011 mg/kg |
| 2300 | CCCCCOc1ccccc1/C=C/C(=O)Nc1cccc2c1OC(c1nnn[nH]1)CO2 (stereo unspecified) |  |
| 500 | CCCCCCCCCCc1ccc(C(=O)Nc2cccc3c2OC(c2nnn[nH]2)CO3)cc1 (stereo unspecified) |  |
| 32 | CCCCCCc1ccc(/C=C/C(=O)Nc2cccc3c(=O)cc(-c4nn[nH]n4)oc23)cc1 |  |
| 3100 | CCCCCc1ccc(/C=C/C(=O)Nc2cccc3cc(-c4nn[nH]n4)oc23)cc1 |  |

| IC50 [1] [nM] | Structure (SMILES) | also measured |
| --- | --- | --- |
| 1.1 | C=CCCC/C=C/COc1ccc(C(=O)Nc2cccc3c2OC(c2nnn[nH]2)CO3)cc1 (stereo unspecified) | inhibition in vivo at 10 mg/kg (Cavia porcellus [4]): 2.9% |
| 1000 | CCCCCc1ccc(/C=C/C(=O)Nc2cccc3ccc(-c4nn[nH]n4)nc23)cc1 |  |
| 215 | CCCCCCCCOc1ccc(/C=C/C(=O)Nc2cccc3c2OC(c2nnn[nH]2)CO3)cc1 (stereo unspecified) |  |
| 53 | CCCCCOc1ccc(C(=O)Nc2cccc3c(=O)cc(-c4nn[nH]n4)oc23)cc1 |  |
| 350 | CCCCCCCc1ccc(/C=C/C(=O)Nc2cccc3c2OC(c2nnn[nH]2)CO3)cc1 (stereo unspecified) |  |
| 120 | CCCCOc1ccc(/C=C/C(=O)Nc2cccc3c2OC(c2nnn[nH]2)CO3)cc1 (stereo unspecified) |  |
| 100 | CCCCCOc1ccc(C(=O)Nc2cccc3c2OC(c2nnn[nH]2)CO3)cc1 (stereo unspecified) |  |
| 20 | CCCCCCCCCOc1ccc(C(=O)Nc2cccc3c2OC(c2nnn[nH]2)CO3)cc1 (stereo unspecified) |  |
| 20000 | CCCCCc1ccc(/C=C/C(=O)Nc2ccccc2CC(=O)O)cc1 |  |
| 140 | CCCCCCc1ccc(/C=C/C(=O)Nc2cccc3c2OC(c2nnn[nH]2)CO3)cc1 (stereo unspecified) |  |
| 300 | CCCCCCCCCCOc1ccc(C(=O)Nc2cccc3c2OC(c2nnn[nH]2)CO3)cc1 (stereo unspecified) |  |
| 660 | CCCOc1ccc(/C=C/C(=O)Nc2cccc3c2OC(c2nnn[nH]2)CO3)cc1 (stereo unspecified) |  |
| 210 | CCCCCCc1ccc(C(=O)Nc2cccc3c2OC(c2nnn[nH]2)CO3)cc1 (stereo unspecified) |  |
| 88 | CCCCCCCOc1ccc(/C=C/C(=O)Nc2cccc3c2OC(c2nnn[nH]2)CO3)cc1 (stereo unspecified) |  |
| 0.5 | CCCCCCCOc1ccc(C(=O)Nc2cccc3c(=O)cc(-c4nn[nH]n4)oc23)cc1 |  |
| 370 | CCCCCc1ccc(/C=C/C(=O)Nc2cccc3c2OC(c2nnn[nH]2)CO3)cc1 (stereo unspecified) | ID50 [2]: 0.33 mg/kg |
| 4.2 | CCCCCCCc1ccc(C(=O)Nc2cccc3c(=O)cc(-c4nn[nH]n4)oc23)cc1 |  |
| 1.3 | C=CCCCCCCOc1ccc(C(=O)Nc2cccc3c2OC(c2nnn[nH]2)CO3)cc1 (stereo unspecified) | inhibition in vivo at 10 mg/kg (Cavia porcellus [4]): < 75.2%; ID50 [2]: 0.0017 mg/kg |
| 1.5 | CCC/C=C/COc1ccc(C(=O)Nc2cccc3c(=O)cc(-c4nn[nH]n4)oc23)cc1 |  |
| 300 | CCCCCc1ccc(/C=C/C(=O)Nc2cccc3ccc(-c4nn[nH]n4)cc23)cc1 |  |
| 220 | CCCCOc1ccc(C(=O)Nc2cccc3c2OC(c2nnn[nH]2)CO3)cc1 (stereo unspecified) |  |
| 240 | CCCCCc1ccc(/C=C/C(=O)Nc2cccc3c(=O)cc(C(=O)O)oc23)cc1 | ID50 [2]: 0.32 mg/kg |
| 5.2 | CCCCCC/C=C/COc1ccc(C(=O)Nc2cccc3c2OC(c2nnn[nH]2)CO3)cc1 (stereo unspecified) | ID50 [2]: 0.0041 mg/kg |
| 220 | CCCCc1ccc(/C=C/C(=O)Nc2cccc3c2OC(c2nnn[nH]2)CO3)cc1 (stereo unspecified) |  |
| 14000 | CCCCCc1ccc(/C=C/C(=O)Nc2ccccc2C(=O)O)cc1 | ID50 [2]: 4.5 mg/kg |
